Assay results as given in patent US11591323B2, “Muscarinic agonists as non-steroidal and non-opioid analgesics and methods of use thereof” (Barry University, priority 2019, dated 2023).
Like-named read-outs stand apart in the source and are kept apart here.

What was measured:
[1] = molecular target: T1, M1 muscarinic receptor (Homo sapiens, UniProt P11229); experiment: accumulation of IPX, M1 CHO cells transfected with G15 (M1Gq+G15); format: cell-based; design: host or cells: CHO cells
T1 sequence (P11229 1-460): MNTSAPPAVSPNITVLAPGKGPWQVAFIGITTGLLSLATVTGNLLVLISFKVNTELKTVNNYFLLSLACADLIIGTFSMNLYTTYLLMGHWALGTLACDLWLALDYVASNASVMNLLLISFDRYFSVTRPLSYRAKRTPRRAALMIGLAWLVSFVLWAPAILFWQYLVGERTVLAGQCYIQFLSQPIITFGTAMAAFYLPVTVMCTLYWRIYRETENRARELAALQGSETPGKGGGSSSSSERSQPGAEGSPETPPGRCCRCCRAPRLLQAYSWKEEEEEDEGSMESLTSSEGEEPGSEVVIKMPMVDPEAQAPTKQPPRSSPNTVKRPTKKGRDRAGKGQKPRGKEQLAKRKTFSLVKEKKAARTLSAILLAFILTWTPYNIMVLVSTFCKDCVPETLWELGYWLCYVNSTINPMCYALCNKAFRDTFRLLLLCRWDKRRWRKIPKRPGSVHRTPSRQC
Protocol: (§1) To determine level of cAMP, cells in suspension were pre-incubated for 1 h with 0.4 μM [^3H]adenine, washed, and incubated for 10 min in the presence of isobutylmethylxanthine and 10 μM forskolin. […] Incubation was ended by addition of 0.2 ml of 2.5 M HCl to the samples. Samples were applied to alumina columns (1.5 g of alumina per column), washed with 2 ml ammonium acetate (pH=7.0) and eluted from columns with 4 ml ammonium acetate and measured by liquid scintillation spectrometry. […] The incubation was stopped by addition of 0.5 ml of chloroform methanol HCl mixture (2:1:0.1). After separation of water and organic phases, 0.6 ml of water phase was applied to Dowex columns (1.5 g of Dowex per column), washed by 20 ml of 60 mM ammonium formate/5 mM sodium borate buffer and eluted from columns with 4 ml of 1M ammonium formate/0.1 formic acid buffer and measured by liquid scintillation spectrometry.
(§2) Measurements of the production of cAMP and inositol phosphates: Levels of second messengers cAMP and inositol phosphates were determined in radiochemical chromatography assays as described previously. To determine level of cAMP, cells in suspension were pre-incubated for 1 h with 0.4 μM [^3H]adenine, washed, and incubated for 10 min in the presence of isobutylmethylxanthine and 10 μM forskolin. […] Incubation was ended by addition of 0.2 ml of 2.5 M HCl to the samples. Samples were applied to alumina columns (1.5 g of alumina per column), washed with 2 ml ammonium acetate (pH=7.0) and eluted from columns with 4 ml ammonium acetate and measured by liquid scintillation spectrometry. […] For this purpose, new CHO cell lines stably expressing promiscuous G15 G-protein and M2 or M4 receptor were generated by transfection with pCMV/hygro vector and hygromycin selection. To determine the rate of formation of inositol phosphates IPX, suspended cells were pre-incubated with 0.1 μM [^3H]myo-inositol for 60 min, washed, and incubated with 10 mM LiCl for 15 min. […] The incubation was stopped by addition of 0.5 ml of chloroform methanol HCl mixture (2:1:0.1). After separation of water and organic phases, 0.6 ml of water phase was applied to Dowex columns (1.5 g of Dowex per column), washed by 20 ml of 60 mM ammonium formate/5 mM sodium borate buffer and eluted from columns with 4 ml of 1M ammonium formate/0.1 formic acid buffer and measured by liquid scintillation spectrometry.
(§3) For bi-phasic response, curves were inhibitory and stimulatory phase were fitted separately. Operational Model of Functional Agonism
(§4) [formula] where y is functional response at concentration of tested compound x, EMAX is maximal response of the system, KA is equilibrium dissociation constant and nH is slope factor. Eq. 5 was fitted to data from functional experiments. Eq. 5 was fitted to data by the two-step procedure described earlier. […] In the second step, Eq. 5 with EMAX fixed to the value determined in the first step was fitted to individual experimental data sets. Relative Intrinsic Activity

[2] = molecular target: T2, M4 muscarinic receptor (Homo sapiens, UniProt P08173); experiment: accumulation of IPX, M4 CHO cells with promiscuous G15 G-protein (M4Gq+G15); format: cell-based; design: expressed in transfected cells; pCMV/hygro vector, hygromycin selection; conditions: for RAi / E′MAX / τ / Δlog(τ/KA): M4 Gq + G15 (↑IPX); for RAi: Table 8, relative to carbachol; for accumulation of IPX: M4 co-transfected with G15, in words; for E′MAX / τ: Table 8; for Δlog(τ/KA): Table 8, to carbachol
T2 sequence (P08173 1-479): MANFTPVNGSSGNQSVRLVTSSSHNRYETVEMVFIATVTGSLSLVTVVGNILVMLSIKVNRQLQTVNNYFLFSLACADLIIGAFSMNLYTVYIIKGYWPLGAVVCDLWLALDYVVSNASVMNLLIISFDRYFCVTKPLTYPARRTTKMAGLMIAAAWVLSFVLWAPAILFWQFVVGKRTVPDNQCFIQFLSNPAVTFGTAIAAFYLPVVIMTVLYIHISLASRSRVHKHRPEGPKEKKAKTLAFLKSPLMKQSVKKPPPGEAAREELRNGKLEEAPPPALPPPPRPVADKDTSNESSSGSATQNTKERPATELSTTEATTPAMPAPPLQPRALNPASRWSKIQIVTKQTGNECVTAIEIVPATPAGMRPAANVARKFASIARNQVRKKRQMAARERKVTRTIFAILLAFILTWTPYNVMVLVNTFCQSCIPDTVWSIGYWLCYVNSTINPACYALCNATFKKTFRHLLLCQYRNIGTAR
Protocol: Since activation of phospholipase C (PLC) via M2 and M4 receptors is weak, cells were transferred with G15 G-protein to facilitate coupling.
as §1, §2, §3, §4
Muscarinic receptors are also able to stimulate non-preferential signalling pathways.

[3] = M1Gq + G15 (↑IPX), Table 8, relative to carbachol
[4] = M1Gq + G15 (↑IPX), Table 8, to carbachol
[5] = M1Gq + G15 (↑IPX), Table 8, read-out: pEC50 (converted)
[6] = M1Gq + G15 (↑IPX), Table 8, read-out: pKA (converted)

SMILES	E′MAX ([1]; M1Gq + G15 (↑IPX), Table 8)	τ ([1]; M1Gq + G15 (↑IPX), Table 8)	RAi [1, 3]	Δlog(τ/KA) [1, 4]	EC50 [1, 5]	Kd [1, 6]	RAi [2]	accumulation of IPX [2]	EC50 [1]	E′MAX [1]	Kd [1]	RAi [1]	Δlog(τ/KA) [1]	τ [1]	E′MAX [2]	τ [2]	Δlog(τ/KA) [2]
C[N+]1(Cc2cccs2)CC=CCC1.[I-] (stereo not drawn) [Compound 7A, 1-methyl-1-[(thiophen-2-yl)methyl]-1,2,3,6-tetrahydropyridin-1-ium iodide]	4.6 ± 0.4 fold increase	0.12 ± 0.01	0.0111 ± 0.0002	1.96 ± 0.16	2630 nM	3160 nM	0	did not stimulate IPX accumulation	–	–	–	–	–	–	–	–	–
O=C1CCCN1CC#CCN1CCCC1 [oxotremorine, reference compound]	–	–	–	–	–	–	3.50 ± 0.33	–	52.5 nM	25 ± 2 fold increase	200 nM	3.71 ± 0.29	−0.57 ± 0.06	2.6 ± 0.3	4.0 ± 0.3 fold over basal	2.5 ± 0.2	−0.54
C[N+](C)(C)CCOC(N)=O [carbachol, reference compound]	–	–	–	–	–	–	–	stimulated accumulation of IPX	–	–	–	–	–	–	4.5 ± 0.3 fold over basal	4.8 ± 0.5	0
C1=CCN(Cc2cccs2)CC1.Cl [Compound 6A, 1-[(thiophen-2-yl)methyl]-1,2,3,6-tetrahydropyridin-1-ium chloride]	2.0 ± 0.2 fold increase	0.03 ± 0.01	0.0010 ± 0.0001	2.98 ± 0.26	7940 nM	7940 nM	0	did not stimulate IPX accumulation	–	–	–	–	–	–	–	–	–
